Test results as given in US11180462B2, “Microbiocidal oxadiazole derivatives” (SYNGENTA PARTICIPATIONS AG, priority 2015, dated 2021).

Key:
Phakopsora Pachyrhizi = assay: Fungicidal activity against Phakopsora pachyrhizi / soybean / leaf disc preventative (Asian soybean rust); assay type: in vivo; conditions: foliar, 200 ppm in the applied formulation, soybean leaf disks, compared to untreated control leaf disks, read-out: disease control
Procedure, shortened: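 Preventative soybean leaf-disc test: discs on water agar sprayed with diluted formulated compound, inoculated one day later with spores on the lower surface. Held 24–36 h dark at 20°C, 75% rh, then 12 h light/day; percent disease control versus untreated discs scored 12–14 days after application.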

[1] = tested on: Glomerella lagenarium (Colletotrichum lagenarium); assay: Fungicidal activity against Glomerella lagenarium (Colletotrichum lagenarium) liquid culture / cucumber / preventative (anthracnose); assay type: cell-based; conditions: Colletotrichum orbiculare; 20 ppm in the applied formulation; liquid culture (PDB), growth inhibition measured photometrically after 3 to 4 days; compared to untreated control; read-out: disease control
Procedure, shortened: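 Photometric read-out of fungal growth after 2–7 days, expressed as percent antifungal activity versus untreated check. Cryo-stored conidia in PDB; compound at 20 ppm; dark, 24 °C, 96% RH.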

[2] = tested on: Puccinia recondita f. Sp. Tritici; assay: Fungicidal activity against Puccinia recondita f. sp. tritici / wheat / leaf disc preventative (brown rust); assay type: in vivo; conditions: foliar, 200 ppm in the applied formulation, wheat leaf segments, preventative, compared to untreated control leaf disks, read-out: disease control
Procedure, shortened: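 Preventative leaf-segment test, wheat cv. Kanzler on water agar. Spray compound at 200 ppm, inoculate with spores 1 day later; 19° C., 75% rh, 12/12 h light. Read-out: % disease control vs untreated, 7 to 9 days after application.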

[3] = tested on: Puccinia recondita f. Sp. Tritici; assay: Fungicidal activity against Puccinia recondita f. sp. tritici / wheat / leaf disc curative (brown rust); assay type: in vivo; conditions: foliar, 24 h, 200 ppm in the applied formulation, wheat leaf segments, curative (applied 1 day after inoculation), compared to untreated control leaf disks, read-out: disease control
Procedure, shortened: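 % disease control vs untreated, scored 6–8 d post-application. Wheat cv. Kanzler segments, spore-inoculated, dark 19° C/75% RH; formulated cpd applied 1 d post-inoc; then 19° C, 75% RH, 12 h L/12 h D.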

CCCC(=O)N(Cc1ccc(-c2noc(C(F)(F)F)n2)cc1)OC [Compound 1.24, N-methoxy-N-[[4-[5-(trifluoromethyl)-1,2,4-oxadiazol-3-yl]phenyl]methyl]-butanamide]
≥ 80%: pest or weed control at 200 ppm (Phakopsora Pachyrhizi) | inhibition of growth at 20 ppm [1] | pest or weed control at 200 ppm [2] | pest or weed control at 200 ppm [3]

CCCC(=O)N(C)Cc1ccc(-c2noc(C(F)(F)F)n2)cc1 [Compound 1.524, N-methyl-N-[[4-[5-(trifluoromethyl)-1,2,4-oxadiazol-3-yl]phenyl]methyl]-butanamide]
≥ 80%: pest or weed control at 200 ppm (Phakopsora Pachyrhizi) | inhibition of growth at 20 ppm [1] | pest or weed control at 200 ppm [2] | pest or weed control at 200 ppm [3]

C#CCN(Cc1ccc(-c2noc(C(F)(F)F)n2)cc1)C(=O)c1ccccc1 [Compound 1.202, N-prop-2-ynyl-N-[[4-[5-(trifluoromethyl)-1,2,4-oxadiazol-3-yl]phenyl]methyl]-benzamide]
≥ 80%: pest or weed control at 200 ppm (Phakopsora Pachyrhizi) | inhibition of growth at 20 ppm [1] | pest or weed control at 200 ppm [2] | pest or weed control at 200 ppm [3]

CCC(=O)N(CC)Cc1ccc(-c2noc(C(F)(F)F)n2)cc1 [Compound 1.497, N-ethyl-N-[[4-[5-(trifluoromethyl)-1,2,4-oxadiazol-3-yl]phenyl]methyl]-propanamide]
≥ 80%: pest or weed control at 200 ppm (Phakopsora Pachyrhizi) | inhibition of growth at 20 ppm [1] | pest or weed control at 200 ppm [2] | pest or weed control at 200 ppm [3]

CC1CC1C(=O)N(C)Cc1ccc(-c2noc(C(F)(F)F)n2)cc1 (centres unmarked) [Compound 1.520, N,2-dimethyl-N-[[4-[5-(trifluoromethyl)-1,2,4-oxadiazol-3-yl]phenyl]methyl]-cyclopropane-carboxamide]
≥ 80%: pest or weed control at 200 ppm (Phakopsora Pachyrhizi) | inhibition of growth at 20 ppm [1] | pest or weed control at 200 ppm [2] | pest or weed control at 200 ppm [3]

CON(Cc1ccc(-c2noc(C(F)(F)F)n2)cc1)C(C)=O [Compound 1.1, N-methoxy-N-[[4-[5-(trifluoromethyl)-1,2,4-Oxadiazol-3-yl]Phenyl]Methyl]-Acetamide]
≥ 80%: pest or weed control at 200 ppm (Phakopsora Pachyrhizi) | inhibition of growth at 20 ppm [1] | pest or weed control at 200 ppm [2] | pest or weed control at 200 ppm [3]

C=CCN(Cc1ccc(-c2noc(C(F)(F)F)n2)cc1)C(=O)C(C)OC (centres unmarked) [Compound 1.492, N-allyl-2-methoxy-N-[[4-[5-(trifluoromethyl)-1,2,4-oxadiazol-3-yl]phenyl]methyl]-propanamide]
≥ 80%: pest or weed control at 200 ppm (Phakopsora Pachyrhizi) | inhibition of growth at 20 ppm [1] | pest or weed control at 200 ppm [2] | pest or weed control at 200 ppm [3]

COCCN(Cc1ccc(-c2noc(C(F)(F)F)n2)cc1)C(=O)C1(C)COC1 [Compound 1.351, N-(2-methoxyethyl)-3-methyl-N-[[4-[5-(trifluoromethyl)-1,2,4-oxadiazol-3-yl]phenyl]methyl]-oxetane-3-carboxamide]
≥ 80%: pest or weed control at 200 ppm (Phakopsora Pachyrhizi) | inhibition of growth at 20 ppm [1] | pest or weed control at 200 ppm [2] | pest or weed control at 200 ppm [3]

O=C(C1CSC1)N(Cc1ccc(-c2noc(C(F)(F)F)n2)cc1)CC1CC1 [Compound 1.216, N-(cyclopropylmethyl)-N-[[4-[5-(trifluoromethyl)-1,2,4-oxadiazol-3-yl]phenyl]methyl]-thietane-3-carboxamide]
≥ 80%: pest or weed control at 200 ppm (Phakopsora Pachyrhizi) | inhibition of growth at 20 ppm [1] | pest or weed control at 200 ppm [2] | pest or weed control at 200 ppm [3]

CCN(Cc1ccc(-c2noc(C(F)(F)F)n2)cc1)C(=O)NC1CC1 [Compound 3.53, 3-cyclopropyl-1-ethyl-1-[[4-[5-(trifluoromethyl)-1,2,4-oxadiazol-3-yl]phenyl]methyl]urea]
≥ 80%: pest or weed control at 200 ppm (Phakopsora Pachyrhizi) | inhibition of growth at 20 ppm [1] | pest or weed control at 200 ppm [2] | pest or weed control at 200 ppm [3]

CCC(C)C(=O)N(Cc1ccc(-c2noc(C(F)(F)F)n2)cc1)C(C)C (centres unmarked) [Compound 1.678, N-isopropyl-2-methyl-N-[[4-[5-(trifluoromethyl)-1,2,4-oxadiazol-3-yl]phenyl]methyl]-butanamide]
≥ 80%: pest or weed control at 200 ppm (Phakopsora Pachyrhizi) | inhibition of growth at 20 ppm [1] | pest or weed control at 200 ppm [2] | pest or weed control at 200 ppm [3]

C=CCN(Cc1ccc(-c2noc(C(F)(F)F)n2)cc1)C(=O)C1CC1 [Compound 1.494, N-allyl-N-[[4-[5-(trifluoromethyl)-1,2,4-oxadiazol-3-yl]phenyl]methyl]-cyclopropane-carboxamide]
≥ 80%: pest or weed control at 200 ppm (Phakopsora Pachyrhizi) | inhibition of growth at 20 ppm [1] | pest or weed control at 200 ppm [2] | pest or weed control at 200 ppm [3]

CC(C)N(Cc1ccc(-c2noc(C(F)(F)F)n2)cc1)C(=O)C1CCC1 [Compound 1.675, N-isopropyl-N-[[4-[5-(trifluoromethyl)-1,2,4-oxadiazol-3-yl]phenyl]methyl]-cyclobutane-carboxamide]
≥ 80%: pest or weed control at 200 ppm (Phakopsora Pachyrhizi) | inhibition of growth at 20 ppm [1] | pest or weed control at 200 ppm [2] | pest or weed control at 200 ppm [3]

C#CCN(Cc1ccc(-c2noc(C(F)(F)F)n2)cc1)C(=O)CC(C)C [Compound 1.175, 3-methyl-N-prop-2-ynyl-N-[[4-[5-(trifluoromethyl)-1,2,4-oxadiazol-3-yl]phenyl]methyl]-butanamide]
≥ 80%: pest or weed control at 200 ppm (Phakopsora Pachyrhizi) | inhibition of growth at 20 ppm [1] | pest or weed control at 200 ppm [2] | pest or weed control at 200 ppm [3]

O=C(Cc1ccccc1)N(Cc1ccc(-c2noc(C(F)(F)F)n2)cc1)C1CC1 [Compound 1.121, N-cyclopropyl-2-phenyl-N-[[4-[5-(trifluoromethyl)-1,2,4-oxadiazol-3-yl]phenyl]methyl]-acetamide]
≥ 80%: pest or weed control at 200 ppm (Phakopsora Pachyrhizi) | inhibition of growth at 20 ppm [1] | pest or weed control at 200 ppm [2] | pest or weed control at 200 ppm [3]

CC(C)CC(=O)N(Cc1ccc(-c2noc(C(F)(F)F)n2)cc1)C1CC1 [Compound 1.109, N-cyclopropyl-3-methyl-N-[[4-[5-(trifluoromethyl)-1,2,4-oxadiazol-3-yl]phenyl]methyl]-butanamide]
≥ 80%: pest or weed control at 200 ppm (Phakopsora Pachyrhizi) | inhibition of growth at 20 ppm [1] | pest or weed control at 200 ppm [2] | pest or weed control at 200 ppm [3]

CC(=O)NCC(=O)N(C)Cc1ccc(-c2noc(C(F)(F)F)n2)cc1 [Compound 1.521, 2-acetamido-N-methyl-N-[[4-[5-(trifluoromethyl)-1,2,4-oxadiazol-3-yl]phenyl]methyl]-acetamide]
≥ 80%: pest or weed control at 200 ppm (Phakopsora Pachyrhizi) | inhibition of growth at 20 ppm [1] | pest or weed control at 200 ppm [2] | pest or weed control at 200 ppm [3]

CC1(C(=O)N(O)Cc2ccc(-c3noc(C(F)(F)F)n3)cc2)COC1 [Compound 1.766, N-hyd roxy-3-methyl-N-[[4-[5-(trifluoromethyl)-1,2,4-oxadiazol-3-yl]phenyl]methyl]-oxetane-3-c arboxamide]
≥ 80%: pest or weed control at 200 ppm (Phakopsora Pachyrhizi) | inhibition of growth at 20 ppm [1] | pest or weed control at 200 ppm [2] | pest or weed control at 200 ppm [3]

CCCN(Cc1ccc(-c2noc(C(F)(F)F)n2)cc1)C(=O)C1(C)COC1 [Compound 1.660, 3-methyl-N-propyl-N-[[4-[5-(trifluoromethyl)-1,2,4-oxadiazol-3-yl]phenyl]methyl]-oxetane-3-carboxamide]
≥ 80%: pest or weed control at 200 ppm (Phakopsora Pachyrhizi) | inhibition of growth at 20 ppm [1] | pest or weed control at 200 ppm [2] | pest or weed control at 200 ppm [3]

CCON(Cc1ccc(-c2noc(C(F)(F)F)n2)cc1)C(=O)C1CCCO1 (centres unmarked) [Compound 1.626, N-ethoxy-N-[[4-[5-(trifluoromethyl)-1,2,4-oxadiazol-3-yl]phenyl]methyl]-tetrahydrofuran-2-carboxamide]
≥ 80%: pest or weed control at 200 ppm (Phakopsora Pachyrhizi) | inhibition of growth at 20 ppm [1] | pest or weed control at 200 ppm [2] | pest or weed control at 200 ppm [3]
